This note sets out measurements from patent US8846710B2, “Method of preferentially inducing the biosynthesis of interferon” (3M Innovative Properties Company, priority 2005, dated 2014).

Each structure is given as a SMILES string. Where only a bound is given, the exact number is not on record here.

In one experiment the test system is interferon (α) (IFN-α). The experiment in a line: Cytokine induction in human cells: IFN-α secreted by PBMC into culture media (ELISA). To be noted: for Maximal Response IFN / Minimum Effective Concentration IFN: human PBMC, median where tested in more than one experiment; for Maximal Response (pg/mL) IFN: Table 7, maximal response in dose response curve, background-subtracted, reference-adjusted, median. In kind it is cell-based. Summed up:
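Human donor PBMC, 2×10^6 cells/mL final in RPMI complete, treated 18–24 h at 37 °C, 5% CO2 with 3-fold dilutions (usually 30-0.014 μM), DMSO ≤1%. Supernatant IFN-α by multi-subtype sandwich ELISA, background-subtracted and reference-adjusted; minimum effective concentration = lowest concentration exceeding usually 20 pg/mL.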
(In general: ELISA stands for enzyme-linked immunosorbent assay.)

Experiment [1] concerns tumor necrosis factor (α) (TNF-α). The experiment in a line: Cytokine induction in human cells: TNF-α secreted by PBMC into culture media (ORIGEN M-Series immunoassay). In kind it is cell-based. To be noted: for Minimum Effective Concentration TNF / Maximal Response TNF: human PBMC; for Minimum Effective Concentration TNF: median where tested in more than one experiment. Also on record: key to Maximal Response (pg/mL) TNF / Maximal Response TNF: If any negative values result from background subtraction, the reading is reported as “*”, and is noted as not reliably detectable. A digest of the protocol: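 Human donor PBMC (final 2×10^6 cells/mL) were incubated 18 to 24 hours at 37° C with compound, usually 30-0.014 μM in 3-fold steps, ≤1% DMSO. Supernatant TNF-α was measured by ORIGEN immunoassay, background-subtracted and reference-adjusted; minimum effective concentration was the lowest concentration exceeding a fixed cytokine threshold.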

Setting [2] is: Table 11, median, * = TNF below experimental background of 40 pg/mL.
Where [3] appears, read: Table 12, median, * = below the experimental background of 40 pg/mL.

`COCCc1nc2c(N)nc3ccccc3c2n1CCOCCN(C)C(=O)c1ccccc1` [Analog 120]: in the experiment on interferon (α) (IFN-α) (Table 11), the “Maximal Response IFN” value was 1394 pg/mL and the “Minimum Effective Concentration IFN” value was determined as 0.04 µM. Further, in experiment [1] (Table 11), the “Minimum Effective Concentration TNF” value came to 0.37 µM. Besides, the “Maximal Response TNF” value in experiment [1] (setting [2]) worked out at 3317 pg/mL.
Consider `Cc1nc2c(N)nc3ccccc3c2n1CCCNC(=O)C(C)C` [Analog 123], for which, in the experiment with interferon (α) (IFN-α) (Table 11), the “Maximal Response IFN” value is given as 3011 pg/mL and the “Minimum Effective Concentration IFN” value was 1.11 µM. Also, in experiment [1] (Table 11), the “Minimum Effective Concentration TNF” value amounted to 10 µM. The “Maximal Response TNF” value in experiment [1] (setting [2]) is reported as 405 pg/mL.
In the same order, the values of `CCOCc1nc2c(N)nc3ccccc3c2n1CC(C)(C)CS(C)(=O)=O` [Analog 124] are 1924 pg/mL, 0.12 µM, 0.37 µM and 9513 pg/mL.
In the same order, the values of `CCOCc1nc2c(N)nc3ccccc3c2n1CCNC(=O)NC(C)C` [Analog 125] are 2045 pg/mL, 0.37 µM, 10 µM and 7512 pg/mL.
Consider `Cc1nc2c(N)nc3cccnc3c2n1CC(C)(C)O` [Analog 126, 1-(4-amino-2-methyl-1H-imidazo[4,5-c][1,5]naphthyridin-1-yl)-2-methylpropan-2-ol], for which the “Maximal Response IFN” value in the experiment on interferon (α) (IFN-α) (Table 12) was determined as 1952 pg/mL. Further, the “Maximal Response TNF” value in experiment [1] (setting [3]) is on record as 6519 pg/mL.
In the same order, the values of `CCc1nc2c(N)nc3cccnc3c2n1CC(C)(C)O` [Analog 127, 1-(4-amino-2-ethyl-1H-imidazo[4,5-c][1,5]naphthyridin-1-yl)-2-methylpropan-2-ol] are 2150 pg/mL and 3863 pg/mL.
In the case of `CCCc1nc2c(N)nc3cccnc3c2n1CC(C)(C)O` [Analog 128, 1-(4-amino-2-propyl-1H-imidazo[4,5-c][1,5]naphthyridin-1-yl)-2-methylpropan-2-ol], the “Maximal Response IFN” value in the experiment with interferon (α) (IFN-α) (Table 12) stood at 2484 pg/mL. The “Maximal Response TNF” value in experiment [1] (setting [3]) came to 5526 pg/mL.
In the same order, the values of `CCOCc1nc2c(N)nc3cccnc3c2n1CC(C)(C)NC(=O)C1CCCCC1` [Analog 129, N-[2-(4-amino-2-ethoxymethyl-1H-imidazo[4,5-c][1,5]naphthyridin-1-yl)-1,1-dimethylethyl]cyclohexanecarboxamide] are 1647 pg/mL and 8691 pg/mL.
Take `CCOCc1nc2c(N)nc3cccnc3c2n1CC(C)(C)NS(C)(=O)=O` [Analog 130, N-[2-(4-amino-2-ethoxoxymethyl-1H-imidazo[4,5-c][1,5]naphthyridin-1-yl)-1,1-dimethylethyl]methanesulfonamide]: the “Minimum Effective Concentration IFN” value in the experiment on interferon (α) (IFN-α) (Table 12) was determined as 0.04 µM. Besides, in experiment [1] (Table 12), the “Minimum Effective Concentration TNF” value was found to be 0.37 µM.
`Cc1nc2c(N)nc3cccnc3c2n1CC(C)(C)F` [Analog 131, 1-(2-fluoro-2-methylpropyl)-2-methyl-1H-imidazo[4,5-c][1,5]naphthyridin-4-amine]: the “Maximal Response IFN” value in the experiment on interferon (α) (IFN-α) (Table 12) came to 2120 pg/mL. Moreover, in experiment [1] (setting [3]), the “Maximal Response TNF” value turned out to be 1679 pg/mL.
For the compound `CCOCc1nc2c(N)nc3cccnc3c2n1CC(C)C` [Analog 132, 2-ethoxymethyl-1-(2-methylpropyl)-1H-imidazo[4,5-c][1,5]naphthyridin-4-amine], the “Maximal Response IFN” value in the experiment on interferon (α) (IFN-α) (Table 12) is given as 1524 pg/mL. Further, in experiment [1] (setting [3]), the “Maximal Response TNF” value is given as 3160 pg/mL.
In the same order, the values of `Cc1nc2c(N)nc3cccnc3c2n1CC(C)C` [Analog 133, 2-methyl-1-(2-methylpropyl)-1H-imidazo[4,5-c][1,5]naphthyridin-4-amine] are 1117 pg/mL and 699 pg/mL.
With `Cc1ccc(S(=O)(=O)NCCCn2c(CCO)nc3c(N)nc4ccccc4c32)cc1` [Example 1, N-{3-[4-Amino-2-(2-hydroxyethyl)-1H-imidazo[4,5-c]quinolin-1-yl]propyl}-4-methylbenzenesulfonamide], the “Maximal Response IFN” value in the experiment on interferon (α) (IFN-α) (Table 11) stood at 1072 pg/mL. The “Maximal Response TNF” value in experiment [1] (setting [2]) is given as 143 pg/mL.
In the same order, the values of `CS(=O)(=O)NCCCCn1c(CCO)nc2c(N)nc3ccccc3c21` [Example 3, N-{4-[4-Amino-2-(2-hydroxyethyl)-1H-imidazo[4,5-c]quinolin 1-yl]butyl}methanesulfonamide] are 2340 pg/mL and “*”.
As to `CC(C)(Cn1c(CO)nc2c(N)nc3ccccc3c21)NC(=O)C1CCCCC1` [Example 5, N-[2-(4-Amino-2-hydroxymethyl-1H-imidazo[4,5-c]quinolin-1-yl)-1,1-dimethylethyl]cyclohexanecarboxamide], the “Maximal Response IFN” value in the experiment with interferon (α) (IFN-α) (Table 11) was determined as 17274 pg/mL. For the same compound, in experiment [1] (setting [2]), the “Maximal Response TNF” value amounted to 1130 pg/mL.
As for `CC(C)(Cn1c(CCO)nc2c(N)nc3ccccc3c21)NS(C)(=O)=O` [Example 6, N-{2-[4-Amino-2-(2-hydroxyethyl)-1H-imidazo[4,5-c]quinolin-1-yl]-1,1-dimethylethyl}methanesulfonamide], in the experiment on interferon (α) (IFN-α), the “Maximal Response (pg/mL) IFN” value is given as 7521 pg/mL. Also, the “Maximal Response IFN” value with interferon (α) (IFN-α) (Table 11) is on record as 6527 pg/mL. The “Maximal Response TNF” value in experiment [1] (setting [2]) was “*”.
On to `CC(C)(Cn1c(CO)nc2c(N)nc3ccccc3c21)NS(C)(=O)=O` [Example 7, N-[2-(4-Amino-2-hydroxymethyl-1H-imidazo[4,5-c]quinolin-1-yl)-1,1-dimethylethyl]methanesulfonamide], for which the “Maximal Response (pg/mL) IFN” value with interferon (α) (IFN-α) is given as 2250 pg/mL. The “Maximal Response IFN” value with interferon (α) (IFN-α) (Table 11) is 1670 pg/mL. The “Maximal Response (pg/mL) TNF” value in experiment [1] (Table 7, maximal response in dose response curve, background-subtracted, reference-adjusted, median) stood at 121 pg/mL. Also, the “Maximal Response TNF” value in experiment [1] (setting [2]) was 154 pg/mL.
Take `Cc1ccc(C)c(S(=O)(=O)NCCCCn2c(CCO)nc3c(N)nc4ccccc4c32)c1` [Example 36]: in the experiment with interferon (α) (IFN-α) (Table 11), the “Maximal Response IFN” value was 3316 pg/mL and the “Minimum Effective Concentration IFN” value amounted to 10 µM. Besides, the “Minimum Effective Concentration TNF” value in experiment [1] (Table 11) is >30 µM. In experiment [1] (setting [2]), the “Maximal Response TNF” value is “*”.
For `CC(C)NC(=O)NCCCn1c(CCO)nc2c(N)nc3ccccc3c21` [Example 99], in that order: 21829 pg/mL, 0.37 µM, >30 µM and “*”.
Regarding `Nc1nc2ccccc2c2c1nc(CCO)n2CCCCNC(=O)c1nccc2ccccc12` [Example 111], in the experiment on interferon (α) (IFN-α) (Table 11), the “Maximal Response IFN” value is 7753 pg/mL and the “Minimum Effective Concentration IFN” value is 0.12 µM. In addition, in experiment [1] (Table 11), the “Minimum Effective Concentration TNF” value amounted to 1.11 µM. In experiment [1] (setting [2]), the “Maximal Response TNF” value was 983 pg/mL.
With `Nc1nc2ccccc2c2c1nc(CCO)n2CCCCNS(=O)(=O)c1ccc(F)cc1` [Example 112], in the experiment on interferon (α) (IFN-α) (Table 11), the “Maximal Response IFN” value is 8361 pg/mL and the “Minimum Effective Concentration IFN” value is 1.11 µM. For the same compound, in experiment [1] (Table 11), the “Minimum Effective Concentration TNF” value worked out at 30 µM. In addition, the “Maximal Response TNF” value in experiment [1] (setting [2]) is on record as 76 pg/mL.
For `NCCCCn1c(CCO)nc2c(N)nc3ccccc3c21` [Example 114], in the experiment with interferon (α) (IFN-α) (Table 11), the “Maximal Response IFN” value came to 23 pg/mL and the “Minimum Effective Concentration IFN” value came to 30 µM. Further, the “Minimum Effective Concentration TNF” value in experiment [1] (Table 11) was >30 µM. Besides, the “Maximal Response TNF” value in experiment [1] (setting [2]) was “*”.
Take `Nc1nc2ccccc2c2c1nc(CCO)n2CCCCNC(=O)N1CCOCC1` [Example 115]: in the experiment on interferon (α) (IFN-α) (Table 11), the “Maximal Response IFN” value was determined as 8361 pg/mL and the “Minimum Effective Concentration IFN” value was 1.11 µM. For the same compound, the “Minimum Effective Concentration TNF” value in experiment [1] (Table 11) is >30 µM. In addition, in experiment [1] (setting [2]), the “Maximal Response TNF” value was “*”.
As for `Nc1nc2ccccc2c2c1nc(CCO)n2CCCCNC(=O)c1cnc2ccccc2c1` [Example 116], in the experiment on interferon (α) (IFN-α) (Table 11), the “Maximal Response IFN” value was 8361 pg/mL and the “Minimum Effective Concentration IFN” value was determined as 0.37 µM. The “Minimum Effective Concentration TNF” value in experiment [1] (Table 11) stood at 30 µM. The “Maximal Response TNF” value in experiment [1] (setting [2]) is 1112 pg/mL.
On to `Nc1nc2ccccc2c2c1nc(CCO)n2CCCCNC(=O)c1cnc2ccccc2n1` [Example 117], for which, in the experiment with interferon (α) (IFN-α) (Table 11), the “Maximal Response IFN” value is on record as 5520 pg/mL and the “Minimum Effective Concentration IFN” value is 0.37 µM. Moreover, the “Minimum Effective Concentration TNF” value in experiment [1] (Table 11) was 3.33 µM. Moreover, in experiment [1] (setting [2]), the “Maximal Response TNF” value is 1938 pg/mL.
In the same order, the values of `Nc1nc2ccccc2c2c1nc(CCO)n2CCCCCCCCNC(=O)Nc1ccccc1` [Example 118] are 5177 pg/mL, 0.37 µM, >30 µM and “*”.
In the same order, the values of `CS(=O)(=O)NCCCCCCCCn1c(CCO)nc2c(N)nc3ccccc3c21` [Example 119] are 8361 pg/mL, 0.04 µM, 3.33 µM and 693 pg/mL.
On to `NCCCn1c(CCO)nc2c(N)nc3ccccc3c21` [Example 120], for which, in the experiment on interferon (α) (IFN-α) (Table 11), the “Maximal Response IFN” value is reported as 5636 pg/mL and the “Minimum Effective Concentration IFN” value worked out at 3.33 µM. Moreover, the “Minimum Effective Concentration TNF” value in experiment [1] (Table 11) was >30 µM. For the same compound, the “Maximal Response TNF” value in experiment [1] (setting [2]) is “*”.
In the same order, the values of `Nc1nc2ccccc2c2c1nc(CCO)n2CCCCCCCCNC(=O)c1ccccc1` [Example 121] are 2441 pg/mL, 0.37 µM, 3.33 µM and 180 pg/mL.
